Data as given in US20230364032A1, “USE OF 2-HOBA TO TREAT ATHEROSCLEROSIS” (Vanderbilt University, priority 2020, published 2023).
“Also recorded” adds a separate entry of the source.

Legend:
Format in all cases: in vivo, mouse
MDA-HDL = assay: MDA adducts in isolated HDL by ELISA; conditions: Ldlr−/− mice
Protocol: FIGS. 7A-7G show the effects of 2-HOBA on MDA-HDL adducts and HDL function. (7A) The levels or MDA adducts were measured by ELISA in HDL isolated from Ldlr mice treated as described in FIG. 1. Data are presented as mean±SEM (N=8 pet group), *** p<0.001, One-way ANOVA with Bonferroni's post hoc test. (7B) Western blots of apoAl and MDA-apoAl in HDL isolated from plasma by immunoprecipitation using primary anti-apoAl antibody. Ldlf mice were treated as described In FIG. 1 and apoAl and MDA-apoAl from Ldlr mice consuming a chow diet are included f0t comparison. (7C) Quantitation using lmageJ software of the mean density ratio (arbitrary units) of MDA-apoAl to apoAl detected by Western blotting (7B). (7D The HDL was isolated from the plasma of Ld/r-mice consuming a western diet for 16 weeks and treated with 2-HOBA or 4-HOBA or vehicle. Cholesterol enriched macrophages were incubated for 24 h with HDL (25 μg protein/ml). and the % reduction in cellular cholesterol content measured. Data presented as mean±SEM. N=7 per group, *p<0.05.**p<0.01, One-way ANOVA with Bonferroni's post hoc test (7E) The MDA adducts were measured by ELISA in HDL isolated from control or FH subjects before and after LDL apheresis. N=7 or 8, ***p<0.001, One-way ANOVA with Bonferroni's post hoc test. (7F) The MDA-Lysyl crosslink content in HDL from control or FH subjects (n=6 per group), p=0.02, Mann-Whitney test (7G) The capacity of HDL from control or FH subjects pre and post LDL apheresis (n=7 per group) to reduce the cholesterol content of apoE macrophages.
The study was approved by the Vanderbilt University Institutional Review Board (IRB), and all participants gave their written informed consent. The human blood samples from patients with severe FH, who were undergoing LDL apheresis, and healthy controls were obtained using an IRB approved protocol. […] After stopping the reaction, the O.D. was measured at 450 nm wavelength. MDA-ApoAI was detected in mouse plasma by immunoprecipitation of ApoAI and western blotting. […] Proteins were visualized and quantitated by Odyssey 3.0 Quantification software (LI-COR).

IL-1β, IL-6, TNF-α, SAA = assay: Plasma/serum inflammatory cytokines by ELISA
Protocol: The inflammatory cytokines including IL-1β (5A), IL-6 (5B), TNF-α (5C) and SAA (5D) were measured by ELISA in plasma from mice consuming a western diet for 16 weeks and treated with 2-HOBA, 4-HOBA, or vehicle. N=8 per group.*p<0.05, **p<0.01. ***p<0.001. One-way ANOVA with Bonferroni's post hoc test.
Serum IL-1β, IL-6 and TNF-α levels were measured by ELISA (R&D System). N=7 or 8 mice per group, N.S., One-way ANOVA with Bonferroni's post hoc test.

[1] = tested on: atherosclerotic lesions of Ldlr−/− mice; assay: Masson's Trichrome staining of lesions (collagen, fibrous cap, necrotic area)
Excerpt: Masson's Trichrome Staining was applied for measurement of atherosclerotic lesion collagen content, fibrous cap thickness and necrotic core size following the manufacturer's instructions (Sigma) and as previously described^30. Briefly, 5 μm cross-sections of proximal atherosclerotic aorta root were fixed with Bouin's solution, stained with hematoxylin for nuclei (black) and biebrich scarlet and phosphotungstic/phosphomolybdic acid for cytoplasm (red), and aniline blue for collagen (blue). Images were captured and analyzed for collagen content, atherosclerotic cap thickness and necrotic core by ImageJ software as described previously^30. The necrotic area is normalized to the total lesion area and is expressed as the % necrotic area.

MDA-LDL = assay: MDA adducts in isolated LDL by ELISA; conditions: Ldlr−/− mice
Protocol: FIG. 21A-D show the effects of 2-HOBA on plasma and LDL MDA adducts in hypercholesterolemic Ldlr^−/− mice. (20A) The MDA content in plasma from Ldlr^−/− mice consuming a Western diet for 16 weeks and treated with 2-HOBA, 4-HOBA, or vehicle was measured by TBARS Assay(*p<0.05, **p<0.01). (20B) The levels of MDA adducts were measured from LDL isolated from the Ldlr^−/− mice by ELISA. N=10 per group, ***p<0.001. (20C) LDL was isolated from control and FH subjects (n=6) pre and post LDL apheresis and the MDA adduct content was measured by ELISA. (20D) LDL was isolated from 2-HOBA, 4-HOBA, or vehicle treated hypercholesterolemic Ldlr^−/− mice. WT peritoneal macrophages were incubated for 24 hrs with the LDL and the cellular cholesterol content was measured as described in methods. (20A-D) One-way ANOVA with Bonferroni's post hoc test).
The study was approved by the Vanderbilt University Institutional Review Board (IRB), and all participants gave their written informed consent. The human blood samples from patients with severe FH, who were undergoing LDL apheresis, and healthy controls were obtained using an IRB approved protocol. HDL and LDL were prepared from serum by Lipoprotein Purification Kits (Cell BioLabs, Inc.). Sandwich ELISA was used to measure plasma MDA-LDL and MDA-HDL levels following the manufacturer's instructions (Cell BioLabs, Inc.). Briefly, isolated LDL or HDL samples and MDA-Lipoprotein standards were added onto anti-MDA coated plates, and, after blocking, the samples were incubated with biotinylated anti-apoB or anti-ApoAI primary antibody. The samples were then incubated for 1 h with streptavidin-enzyme conjugate and 15 min with substrate solution. After stopping the reaction, the O.D. was measured at 450 nm wavelength. MDA-ApoAI was detected in mouse plasma by immunoprecipitation of ApoAI and western blotting. […] Proteins were visualized and quantitated by Odyssey 3.0 Quantification software (LI-COR).

Structure (SMILES): NCc1ccccc1O [2-HOBA, 2-hydroxybenzylamine]
- MDA content in HDL (MDA-HDL): reduced
- reduction of MDA adduct content of isolated HDL (ELISA) (MDA-HDL; compared to 4-HOBA): 56%
- reduction of MDA adduct content of isolated HDL (ELISA) (MDA-HDL; compared to vehicle): 57%
- cytokine levels (IL-1β, IL-6, TNF-α) (IL-1β, IL-6, TNF-α, SAA; Ldlr−/− mice on chow diet, 1 g/L): no impact
- serum levels of IL-1β, IL-6, TNF-α, and serum amyloid A (IL-1β, IL-6, TNF-α, SAA; Ldlr−/− mice, western diet 16 weeks, versus 4-HOBA or vehicle): decreased; also recorded: reduces
- features of stable atherosclerotic plaques [1]: promotes features of stable atherosclerotic plaques
- increase of collagen content of the proximal aorta ([1]; compared to 4-HOBA): 2.6 fold
- increase of collagen content of the proximal aorta ([1]; compared to vehicle): 2.7 fold
- decrease of % of necrotic area in the proximal aorta ([1]; versus 4-HOBA): 73.5%
- fibrous cap thickness, fold greater ([1]; versus 4-HOBA): 2.29 fold
- MDA content in LDL (MDA-LDL): reduced
- reduction of MDA adduct content in isolated LDL (ELISA) (MDA-LDL; compared to 4-HOBA): 54%
- reduction of MDA adduct content in isolated LDL (ELISA) (MDA-LDL; compared to vehicle): 57%
